Key:
[1] = test system: K562 cells; test: Inhibitory effect of compounds on proliferation of K562 cells (CCK-8); format: cell-based; conditions: Homo sapiens, 72 h with compound, CCK-8, 5% serum
Description: K562 cells in logarithmic growth phase and good cell condition were added to a centrifuge tube and centrifuged at 1000 rpm for 5 min in a low speed centrifuge. […] The cells were seeded on a 96-well plate at 100 µL/well using a multi-channel pipette and cultured in a cell incubator at 37° ° C. 5% CO2 and saturated humidity. […] Inhibition rate (%)=(mean value of negative control group−mean value of experimental group)/(mean value of negative control group−mean value of blank group)×100%. A dose-response curve was fitted by four-parameter analysis, with the logarithm of compound concentration serving as abscissa and inhibition rate serving as ordinate, such that IC50 was calculated.

[2] = target: T1, Ba/F3-BCR-ABL1-T315I-C3 cells (Homo sapiens, UniProt P00519, T315I, cells depend on it); test: Inhibitory effect of compounds on proliferation of BCR-ABL T315I-transfected Ba/F3 cells (CCK-8); format: cell-based; conditions: 72 h with compound, CCK-8, 5% serum, read-out: IC50 (nM) Ba/F3-BCR-ABL1 T315I
T1 construct: fused on or other part: P11274 (Breakpoint cluster region protein)
Description: Ba/F3-BCR-ABL1-T315I-C3 cells in logarithmic growth phase and good cell condition were added to a centrifuge tube and centrifuged at 1000 rpm for 5 min in a low speed centrifuge. The supernatant was discarded, and 5 mL of complete medium (RPMI 1640 basic medium+10% FBS) was added using a pipette for cell resuspension. The cells were counted using a cell counter, diluted with complete medium to a cell density of 6×10^4 cells/mL, and an equivalent amount of RPMI 1640 basic medium was added to adjust the serum concentration to 5% and the cell density to 3×10^4 cells/mL for plate seeding. The cells were seeded on a 96-well plate at 100 μL/well using a multi-channel pipette and cultured in a cell incubator at 37° C. 5% CO2 and saturated humidity. After 24 h incubation, compounds were loaded using a nanoliter pipettor, 8 concentrations (1000 nM, 250 nM, 63 nM, 16 nM, 3.9 nM, 0.98 nM, 0.24 nM, 0.061 nM) were set for each compound, and 2 replicate wells were set for each concentration; cells with no compounds added were taken as a negative control, and a plating medium with no cells added was taken as a blank control. After 72 h. […] Inhibition rate (%)=(mean value of negative control group−mean value of experimental group)/(mean value of negative control group−mean value of blank group)×100%. A dose-response curve was fitted by four-parameter analysis, with the logarithm of compound concentration serving as abscissa and inhibition rate serving as ordinate, such that ICso was calculated.

| SMILES | IC50 [1] [nM] | GI50 [2] [nM] |
| --- | --- | --- |
| Cn1ccc(-c2cc(C(=O)Nc3ccc(OC(F)(F)Cl)cc3)cnc2N2C3COCC2C3)cc1=O [Compound 20] | 31 | 38 |
| Cn1ccc(-c2cc(C(=O)Nc3ccc(OC(F)(F)Cl)cc3)cnc2N2CC3CC(C2)O3)cc1=O [Compound 23] | 10 | 18 |
| O=C(Nc1ccc(OC(F)(F)Cl)cc1)c1cnc(N2C[C@H]3C[C@@H]2CO3)c(-c2cnn3c2COCC3)c1 [Compound 38] | – | 5.7 |
| O=C(Nc1ccc(OC(F)(F)Cl)cc1)c1cnc(N2C[C@@H]3C[C@H]2CO3)c(-c2cnn3c2COCC3)c1 [Compound 40] | – | 7.4 |
| Cn1cnc(-c2cc(C(=O)Nc3ccc(OC(F)(F)Cl)cc3)cnc2N2C3CCC2COC3)cc1=O [Compound 49] | 10 | – |
| Cn1cnc(-c2cc(C(=O)Nc3ccc(OC(F)(F)Cl)cc3)cnc2N2CC3CCC(C2)O3)cc1=O [Compound 50] | 10 | – |
| Cn1cnc(-c2cc(C(=O)Nc3ccc(OC(F)(F)Cl)cc3)cnc2N2C[C@H]3C[C@@H]2CO3)cc1=O [Compound 51] | 13 | – |
| Cn1cnc(-c2cc(C(=O)Nc3ccc(OC(F)(F)Cl)cc3)cnc2N2CC3CC(C2)O3)cc1=O [Compound 52] | 6.1 | – |
| COCCNc1ncc(C(=O)Nc2ccc(OC(F)(F)Cl)cc2)cc1-c1cc(=O)n(C)cn1 [Compound 55] | 26 | – |
| CNc1ncc(C(=O)Nc2ccc(OC(F)(F)Cl)cc2)cc1-c1cc(=O)n(C)cn1 [Compound 62] | 18 | – |
| Cn1cnc(-c2cc(C(=O)Nc3ccc(OC(F)(F)Cl)cc3)cnc2-n2ccnc2)cc1=O [Compound 66] | 31 | – |
| Cn1cnc(-c2cc(C(=O)Nc3ccc(OC(F)(F)Cl)cc3)cnc2-c2ccn[nH]2)cc1=O [Compound 69] | 47 | – |
| COCCOc1ncc(C(=O)Nc2ccc(OC(F)(F)Cl)cc2)cc1-c1cc(=O)n(C)cn1 [Compound 70] | 95 | – |
| COc1ncc(C(=O)Nc2ccc(OC(F)(F)Cl)cc2)cc1-c1cc(=O)n(C)cn1 [Compound 71] | 43 | – |
| Cn1nccc1-c1ncc(C(=O)Nc2ccc(OC(F)(F)Cl)cc2)cc1-c1cc(=O)n(C)cn1 [Compound 73] | 14 | – |
| Cn1cnc(-c2cc(C(=O)Nc3ccc(OC(F)(F)Cl)cc3)cnc2-n2cccn2)cc1=O [Compound 77] | 13 | – |
| CN(C)c1ncc(C(=O)Nc2ccc(OC(F)(F)Cl)cc2)cc1-c1cc(=O)n(CC2CCOCC2)cn1 [Compound 78] | 46 | – |
| Cn1cnc(-c2cc(C(=O)Nc3ccc(OC(F)(F)Cl)cc3)cnc2N2C[C@@H](F)[C@H](F)C2)cc1=O [Compound 79] | 17 | – |
| CON(C)c1ncc(C(=O)Nc2ccc(OC(F)(F)Cl)cc2)cc1-c1cc(=O)n(C)cn1 [Compound 81] | 10 | – |
| Cn1ncc(-c2cc(C(=O)Nc3ccc(OC(F)(F)Cl)cc3)cnc2N2C[C@H]3C[C@@H]2CO3)cc1=O [Compound 88] | 10 | – |
| O=C(Nc1ccc(OC(F)(F)Cl)cc1)c1cnc(N2C3COCC2C3)c(-c2cnn3c2COCC3)c1 [Compound 92] | 15 | – |
| C[C@@H]1COCCN1c1ncc(C(=O)Nc2ccc(OC(F)(F)Cl)cc2)cc1-c1cnn2c1COCC2 [Compound 93] | 12 | – |
| CN1Cc2nc(-c3cc(C(=O)Nc4ccc(OC(F)(F)Cl)cc4)cnc3N3CC[C@@H](O)C3)[nH]c2C1=O [Compound 95] | 39 | – |
| CN1CCc2oc(-c3cc(C(=O)Nc4ccc(OC(F)(F)Cl)cc4)cnc3N3CC[C@@H](O)C3)cc2C1=O [Compound 101] | 10 | – |
| O=C(Nc1ccc(OC(F)(F)Cl)cc1)c1cnc(N2CC[C@@H](O)C2)c(-c2cc3nccn3[nH]2)c1 [Compound 102] | – | 76 |

Next, values leading:

| IC50 [1] [nM] | GI50 [2] [nM] | SMILES |
| --- | --- | --- |
| 16 | 21 | Cn1ccc(-c2cc(C(=O)Nc3ccc(OC(F)(F)Cl)cc3)cnc2N2CC[C@H](Cl)C2)cc1=O [Compound 4] |
| 16 | 28 | Cn1ccc(-c2cc(C(=O)Nc3ccc(OC(F)(F)Cl)cc3)cnc2N2CC3(COC3)C2)cc1=O [Compound 5] |
| 52 | 23 | O=C(Nc1ccc(OC(F)(F)Cl)cc1)c1cnc(N2CCOCC2)c(-c2ccn(CCO)c(=O)c2)c1 [Compound 8] |
| 9.3 | – | CCn1ccc(-c2cc(C(=O)Nc3ccc(OC(F)(F)Cl)cc3)cnc2N2CCOCC2)cc1=O [Compound 9] |
| 12 | 54 | Cn1ccc(-c2cc(C(=O)Nc3ccc(OC(F)(F)Cl)cc3)cnc2N2CC[C@@H](O)C2)cc1=O [Compound 11] |
| 13 | 33 | Cn1ccc(-c2cc(C(=O)Nc3ccc(OC(F)(F)Cl)cc3)cnc2N2CC[C@H](F)C2)cc1=O [Compound 17] |
| 4.9 | 8.1 | Cn1ccc(-c2cc(C(=O)Nc3ccc(OC(F)(F)Cl)cc3)cnc2N2CC[C@@H](Cl)C2)cc1=O [Compound 18] |
| – | 20 | Cn1ccc(-c2cc(C(=O)Nc3ccc(OC(F)(F)Cl)cc3)cnc2N2C[C@H]3C[C@@H]2CO3)cc1=O [Compound 21] |
| – | 35 | Cn1ccc(-c2cc(C(=O)Nc3ccc(OC(F)(F)Cl)cc3)cnc2N2C[C@@H]3C[C@H]2CO3)cc1=O [Compound 22] |
| 6.3 | 12 | Cn1ccc(-c2cc(C(=O)Nc3ccc(OC(F)(F)Cl)cc3)cnc2N2CCC3(CC2)COC3)cc1=O [Compound 24] |
| 9 | 20 | Cn1ccc(-c2cc(C(=O)Nc3ccc(OC(F)(F)Cl)cc3)cnc2N2CC(C#N)C2)cc1=O [Compound 25] |
| 26 | 53 | Cn1ccc(-c2cc(C(=O)Nc3ccc(OC(F)(F)Cl)cc3)cnc2N2CC(C)(O)C2)cc1=O [Compound 26] |
| 18 | 67 | Cn1ccc(-c2cc(C(=O)Nc3ccc(OC(F)(F)Cl)cc3)cnc2N2C[C@H](O)[C@@H](F)C2)cc1=O [Compound 27] |
| 6.5 | 11 | Cn1ccc(-c2cc(C(=O)Nc3ccc(OC(F)(F)Cl)cc3)cnc2N2CC3CC3C2)cc1=O (stereo not shown) [Compound 28] |
| 6.8 | 12 | Cn1ccc(-c2cc(C(=O)Nc3ccc(OC(F)(F)Cl)cc3)cnc2N2CCCO2)cc1=O [Compound 29] |
| 10 | 18 | Cn1ccc(-c2cc(C(=O)Nc3ccc(OC(F)(F)Cl)cc3)cnc2N2CC[C@H](C#N)C2)cc1=O [Compound 30] |
| 12 | 21 | Cn1ccc(-c2cc(C(=O)Nc3ccc(OC(F)(F)Cl)cc3)cnc2N2CC[C@@H](C#N)C2)cc1=O [Compound 31] |
| 4.9 | 9.1 | Cn1cc(Cl)c(-c2cc(C(=O)Nc3ccc(OC(F)(F)Cl)cc3)cnc2N2CCOCC2)cc1=O [Compound 33] |
| 20 | 7.8 | Cn1ccc(-c2cc(C(=O)Nc3ccc(OC(F)(F)Cl)cc3)cnc2N2CC3CCC(C2)O3)cc1=O [Compound 34] |
| 13 | – | Cn1cnc(-c2cc(C(=O)Nc3ccc(OC(F)(F)Cl)cc3)cnc2N2CC(O)C2)cc1=O [Compound 48] |
| 59 | – | C[C@H]1COCCN1c1ncc(C(=O)Nc2ccc(OC(F)(F)Cl)cc2)cc1-c1cc(=O)n(C)cn1 [Compound 57] |
| 14 | – | Cn1cnc(-c2cc(C(=O)Nc3ccc(OC(F)(F)Cl)cc3)cnc2N2CCCO2)cc1=O [Compound 80] |
| 57 | – | Cn1cc(-c2cc(C(=O)Nc3ccc(OC(F)(F)Cl)cc3)cnc2N2CCOCC2)ncc1=O [Compound 82] |
| 45 | – | Cn1cc(-c2cc(C(=O)Nc3ccc(OC(F)(F)Cl)cc3)cnc2N2CCOCC2)ccc1=O [Compound 84] |

Source: patent US20240262807A1, “COMPOUND USED AS BCR-ABL INHIBITOR” (CHIA TAI TIANQING PHARMACEUTICAL GROUP CO., LTD., priority 2021, published 2024)
